[dabcylT] = deoxythymidine carrying a dabcyl quencher; {FAM} = fluorescein (FAM) label; d = 2'-deoxy (DNA); r = 2'-OH (RNA)
Legend:
[1] = target: NCp7 (Human immunodeficiency virus type 1 group M subtype B, UniProt P12493); details: for difference in fluorescence intensity (factor): DNA analogs of the two extreme states H and O
From the text: This switch has fluorescent labels, * (e.g., FAM, 6-carboxy-fluorescein), at the 5′-end of the chain and Q (a quencher, e.g., dabcyl) near the 3′-end of the DNA segment (light font). […] In the O species, * and Q are within the Förster distance for efficient quenching. However, they are far apart in the extended hairpin form, H, and the switch emits strongly.
By altering the DNA sequence, K1 is adjusted between 0.1-0.01 (K1=[O]/[H]). […] Upon addition of NCp7 (P), the K1 equilibrium shifts to the right, and the fluorescence signal decreases. The switch is set to a null signal in the presence of a slight excess of P, and is triggered to emit when a competitor, C, sequesters the protein in the P.C complex. […] Knowledge of K1, K2, and the input concentrations, Ot, Pt, and Ct will allow estimation of K3.
This allows the equilibrium shift upon changing the sequence, or adding NCp7, to be monitored very easily. Simply put, the fluorescence of pure H and O are known, so their populations in a mixed system will be just a linear function of the measured fluorescence.

[2] = test system: proviral DNA synthesis; details: cited from earlier work
[3] = test system: NC; details: cited from earlier work

## FAM-d(GCATGCCTCCGCATGC(T-dabcyl)CCAACACGC)-UAGCGGUGGCUAGC (DNA GCATGCCTCCGCATGCTCCAACACGCUAGCGGUGGCUAGC; sugars from the 5' end d26 r14, [dabcylT] at 17, 5' {FAM}, backbone and methylation of C not given here) [M2]
[1]
  fluorescence of switch without and with NCp7: bright in the absence of NCp7 and dark in its presence
  difference in fluorescence intensity (factor): 10

## FAMd(GCTAGCCACCGCTAGC(T-dabcyl)CCAACACGC)-UAGCGGUGGCUAGC [M1]
[1]
  difference in fluorescence intensity (factor): 10

## FAMd(GCTATCCACCGATAGC(T-dabcyl)CCAACACGC)-UAGCGGUGGCUAGC (DNA GCTATCCACCGATAGCTCCAACACGCUAGCGGUGGCUAGC; chemistry not fully specified) [M3]
[1]; 10 nM concentration of the switch
  equilibration with NCp7: within a minute

## c(F-C-dW-R-C-K)
[2]
  In vivo effects: suggest impairment of proviral DNA synthesis
[3]
  competition with NC for in vitro recognition of its RNA, DNA and protein targets: competes with NC

— patent US7718784B2, “Switchable nucleic acids for diagnostics, screening and molecular electronics” (priority 2003, dated 2010)
